Test results from patent US20230293526A1, “METHOD FOR TREATING CANCER WITH A REVERSE TRANSCRIPTASE INHIBITOR” (PrimeFour Therapeutics, Inc., priority 2020, published 2023).

Legend:
human LINE-1 = assay: Human LINE-1 (L1) retrotransposition dual-luciferase reporter assay in HeLa cells; assay type: cell-based; conditions: Homo sapiens, HeLa, 72 h, read-out: Human LINE-1 IC50 (Human L1 activity inhibition)
Outline: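 Compound dilution series (final DMSO 0.2%) added right after transfecting HeLa cells with the pYX017 L1 dual-luciferase reporter; 72 h culture at 37 °C, 5% CO2, triplicates. IC50 fitted by non-linear logistic regression to firefly-to-Renilla luminescence ratio (×10,000).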

cancer cell lines = assay: Cancer cell proliferation activity of representative nucleosides, CellTiterGlo 72 h (Example 7, Tables 8 and 9); assay type: cell-based; conditions: 72 h
Outline: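 Percent viability was set against 0.1% DMSO (100%) and 10 μM staurosporine (0%), with signal from CellTiterGlo luminescence. Dose-response treatment began one day after seeding and lasted 72 h at 37° C under 5% or 10% CO2, with 0.1% final DMSO.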

IC50 (human LINE-1): 0.043 µM
IC50 (cancer cell lines; 72 h, 5637, bladder): > 50 µM
IC50 (cancer cell lines; CLS439, bladder): > 50 µM
IC50 (cancer cell lines; HS729, muscle): > 50 µM
IC50 (cancer cell lines; J82, bladder): > 50 µM
IC50 (cancer cell lines; JAR, placenta): > 50 µM
IC50 (cancer cell lines; MT3, breast): 3.29 µM
IC50 (cancer cell lines; PC3, prostate): > 50 µM
IC50 (cancer cell lines; RD, muscle): > 50 µM
IC50 (cancer cell lines; T24, bladder): 3.46 µM
IC50 (cancer cell lines; Homo sapiens, 22Rv1, 72 h, 22RV1, prostate): > 50 µM
IC50 (cancer cell lines; Homo sapiens, 786-0, 72 h, 786O, kidney): > 50 µM
IC50 (cancer cell lines; Homo sapiens, A204, 72 h, A204, muscle): 0.27 µM
IC50 (cancer cell lines; Homo sapiens, A549, 72 h, A549, lung): 5.54 µM
IC50 (cancer cell lines; Homo sapiens, A673, 72 h, A673, bone): > 50 µM
IC50 (cancer cell lines; Homo sapiens, A2780, 72 h, A2780, ovary): > 50 µM
IC50 (cancer cell lines; Homo sapiens, A-375, 72 h, A375, skin): > 50 µM
IC50 (cancer cell lines; Homo sapiens, A-431, 72 h, A431, skin): > 50 µM
IC50 (cancer cell lines; Homo sapiens, ACHN, kidney): 2.74 µM
IC50 (cancer cell lines; Homo sapiens, ASPC1, 72 h, ASPC1, pancreas): > 50 µM
IC50 (cancer cell lines; Homo sapiens, BT-20, 72 h, BT20, breast): > 50 µM
IC50 (cancer cell lines; Homo sapiens, BXPC-3, 72 h, BXPC3, pancreas): > 50 µM
IC50 (cancer cell lines; Homo sapiens, C-33-A, C33A, endometrial): 6.53 µM
IC50 (cancer cell lines; Homo sapiens, CAKI-1, 72 h, CAKI1, kidney): 1.49 µM
IC50 (cancer cell lines; Homo sapiens, COLO 205, 72 h, COLO205, colon): 3.44 µM
IC50 (cancer cell lines; Homo sapiens, COLO-678, 72 h, COLO678, colon): > 50 µM
IC50 (cancer cell lines; Homo sapiens, Ca-Ski, CASKI, endometrial): > 50 µM
IC50 (cancer cell lines; Homo sapiens, Caco-2, 72 h, CACO2, colon): > 50 µM
IC50 (cancer cell lines; Homo sapiens, Calu-6, 72 h, CALU6, lung): > 50 µM
IC50 (cancer cell lines; Homo sapiens, DLD-1, 72 h, DLD1, colon): > 50 µM
IC50 (cancer cell lines; Homo sapiens, DU-145, 72 h, DU145, prostate): > 50 µM
IC50 (cancer cell lines; Homo sapiens, EFO-21, 72 h, EFO21, ovary): > 50 µM
IC50 (cancer cell lines; Homo sapiens, EJ-28, 72 h, EJ28, bladder): > 50 µM
IC50 (cancer cell lines; Homo sapiens, Granta-519, 72 h, GRANTA-519, hematological): 1.61 µM
IC50 (cancer cell lines; Homo sapiens, HCT-15, 72 h, HCT15, colon): 9.11 µM
IC50 (cancer cell lines; Homo sapiens, HCT-116, 72 h, HCT116, colon): 3.01 µM
IC50 (cancer cell lines; Homo sapiens, HEK293, 72 h, HEK293, kidney): > 50 µM
IC50 (cancer cell lines; Homo sapiens, HL-60, 72 h, HL-60, hematological): > 50 µM
IC50 (cancer cell lines; Homo sapiens, HT-29, 72 h, HT29, colon): > 50 µM
IC50 (cancer cell lines; Homo sapiens, HT-1080, 72 h, HT1080, connective tissue): > 50 µM
IC50 (cancer cell lines; Homo sapiens, HeLa, endometrial): > 50 µM
IC50 (cancer cell lines; Homo sapiens, HepG2, 72 h, HEPG2, liver): > 50 µM
IC50 (cancer cell lines; Homo sapiens, Hs-578T, HS578T, breast): > 50 µM
IC50 (cancer cell lines; Homo sapiens, IGROV-1, 72 h, IGROV1, ovary): > 50 µM
IC50 (cancer cell lines; Homo sapiens, IMR-90, 72 h, IMR90, lung): > 50 µM
IC50 (cancer cell lines; Homo sapiens, JEG-3, 72 h, JEG3, placenta): > 50 µM
IC50 (cancer cell lines; Homo sapiens, JIMT-1, 72 h, JIMT1, breast): > 50 µM
IC50 (cancer cell lines; Homo sapiens, K562, 72 h, K-562, hematological): > 50 µM
IC50 (cancer cell lines; Homo sapiens, Kasumi 1, 72 h, KASUMI-1, hematological): > 50 µM
IC50 (cancer cell lines; Homo sapiens, L-363, 72 h, L-363, hematological): > 50 µM
IC50 (cancer cell lines; Homo sapiens, LoVo, colon): > 50 µM
IC50 (cancer cell lines; Homo sapiens, MCF7, 72 h, MCF7, breast): > 50 µM
IC50 (cancer cell lines; Homo sapiens, MDA-MB-231, 72 h, MDAMB231, breast): 2.85 µM
IC50 (cancer cell lines; Homo sapiens, MDA-MB-435, 72 h, MDAMB435, skin): > 50 µM
IC50 (cancer cell lines; Homo sapiens, MDA-MB-436, 72 h, MDAMB436, breast): > 50 µM
IC50 (cancer cell lines; Homo sapiens, MDA-MB-468, 72 h, MDAMB468, breast): > 50 µM
IC50 (cancer cell lines; Homo sapiens, MG-63, 72 h, MG63, bone): > 50 µM
IC50 (cancer cell lines; Homo sapiens, MHH-ES-1, 72 h, MHHES1, bone): > 50 µM
IC50 (cancer cell lines; Homo sapiens, MIA PaCa-2, 72 h, MIAPACA2, pancreas): > 50 µM
IC50 (cancer cell lines; Homo sapiens, MINO, hematological): 1.3 µM
IC50 (cancer cell lines; Homo sapiens, MV4-11, 72 h, MV4-11, hematological): 4.39 µM
IC50 (cancer cell lines; Homo sapiens, NCI-H23, 72 h, NCI-H23, lung): > 50 µM
IC50 (cancer cell lines; Homo sapiens, NCI-H82, 72 h, NCIH82, lung): > 50 µM
IC50 (cancer cell lines; Homo sapiens, NCI-H292, 72 h, NCIH292, lung): 4.62 µM
IC50 (cancer cell lines; Homo sapiens, NCI-H460, 72 h, NCIH460, ung): 4.01 µM
IC50 (cancer cell lines; Homo sapiens, OVCAR-3, 72 h, OVCAR3, ovary): > 50 µM
IC50 (cancer cell lines; Homo sapiens, OVCAR-4, 72 h, OVCAR4, ovary): > 50 µM
IC50 (cancer cell lines; Homo sapiens, PANC-1, 72 h, PANC1, pancreas): > 50 µM
IC50 (cancer cell lines; Homo sapiens, PLC-PRF-5, 72 h, PLCPRF5, liver): > 50 µM
IC50 (cancer cell lines; Homo sapiens, Panc1005, 72 h, PANC1005, pancreas): > 50 µM
IC50 (cancer cell lines; Homo sapiens, Ramos, hematological): 1.72 µM
IC50 (cancer cell lines; Homo sapiens, SAOS-2, 72 h, SAOS2, bone): > 50 µM
IC50 (cancer cell lines; Homo sapiens, SF-268, 72 h, SF268, brain): > 50 µM
IC50 (cancer cell lines; Homo sapiens, SF-295, 72 h, SF295, brain): > 50 µM
IC50 (cancer cell lines; Homo sapiens, SK-BR-3, 72 h, SKBR3, breast): > 50 µM
IC50 (cancer cell lines; Homo sapiens, SK-HEP1, 72 h, SKHEP1, liver): > 50 µM
IC50 (cancer cell lines; Homo sapiens, SK-LMS-1, 72 h, SKLMS1, uterus): > 50 µM
IC50 (cancer cell lines; Homo sapiens, SK-MEL-5, 72 h, SKMEL5, skin): > 50 µM
IC50 (cancer cell lines; Homo sapiens, SK-MEL-28, 72 h, SKMEL28, skin): > 50 µM
IC50 (cancer cell lines; Homo sapiens, SK-N-AS, SKNAS, brain): > 50 µM
IC50 (cancer cell lines; Homo sapiens, SK-N-SH, SKNSH, brain): > 50 µM
IC50 (cancer cell lines; Homo sapiens, SK-OV-3, 72 h, SKOV3, ovary): > 50 µM
IC50 (cancer cell lines; Homo sapiens, SNB-75, 72 h, SNB75, brain): > 50 µM
IC50 (cancer cell lines; Homo sapiens, SU-DHL10, 72 h, SU-DHL-10, hematological): > 50 µM
IC50 (cancer cell lines; Homo sapiens, SU-DHL-6, 72 h, SU-DHL-6, hematological): 3.8 µM
IC50 (cancer cell lines; Homo sapiens, SW-620, 72 h, SW620, colon): > 50 µM
IC50 (cancer cell lines; Homo sapiens, TE-671, 72 h, TE671, muscle): > 50 µM
IC50 (cancer cell lines; Homo sapiens, THP-1, 72 h, THP-1, hematological): > 50 µM
IC50 (cancer cell lines; Homo sapiens, U2OS, bone): > 50 µM
IC50 (cancer cell lines; Homo sapiens, U-87 MG, U87MG, brain): > 50 µM
IC50 (cancer cell lines; Homo sapiens, UMUC3, 72 h, UMUC3, bladder): > 50 µM
IC50 (cancer cell lines; Homo sapiens, UO-31, 72 h, UO31, kidney): 9.45 µM
IC50 (cancer cell lines; Homo sapiens, WSU-NHL, hematological): 2.82 µM
IC50 (cancer cell lines; NCI-H358M, NCIH358M, lung): 1.49 µM
IC50 (cancer cell lines; PBMC, hematological): 11.8 µM
IC50 (cancer cell lines; RD-ES, RDES, bone): > 50 µM
SMILES: CC[C@]1(CO)O[C@@H](n2ccc(N)nc2=O)C[C@@H]1O [compound 21, 4-amino-1-((2R,4S,5R)-5-ethyl-4-hydroxy-5-(hydroxymethyl)tetrahydrofuran-2-yl)pyrimidin-2(1H)-one]
